From patent US20240140970A1, “A […], AND PREPARATION METHOD AND USE THEREOF” (ASCENTAWITS PHARMACEUTICALS, LTD., priority 2021, published 2024)
Values joined by “and” are separate entries in the source; they are usually repeats but may differ in a detail not shown here. Equal values may be shown once.

Test: Experimental table stability of AST-2660 in human urine at room temperature (LC-MS/MS)
Format: in vitro ADME
Details: for RE (%) vs nominal / AST-2660 concentration, Mean value / AST-2660 concentration, single replicates: human urine, room temperature
Description: The detection method established in example 6 was used to detect the content of AST-2660 in the human urine to be tested.
Matrix: the mixed normal human urine containing an additive Na2HPO4·12H2O. • a: the internal standard working solution: AST-2660-D8 was taken, dissolved with methanol, and diluted to prepare a solution containing about 100 ng per 1 ml. • b: the solution to be tested (no internal standard compound was added to the solution to be tested at this time): it was obtained by taking a blood sample to be tested. • c: the standard working solution (no internal standard compound was added to the standard working solution at this time): an appropriate amount of AST-2660 was taken and accurately weighed, dissolved with methanol and diluted to prepare a solution containing about 1.0 mg per 1 ml, which was used as the standard working stock solution. An appropriate amount of the standard working stock solution was taken, added with the matrix and diluted to prepare standard working solutions with different concentrations containing about 200 ng, 160 ng, 100 ng, 50 ng, 10 ng, 2.0 ng, 1.0 ng and 0.5 ng per 1 ml, respectively. (The solution was stored at −70° C.) • d: the quality control sample solution: an appropriate amount of AST-2660 was taken and accurately weighed, dissolved with methanol, and diluted to prepare a solution containing about 10 μg per 1 ml, which was used as the quality control working stock solution. An appropriate amount of the quality control working stock solution was taken, and added with the matrix to prepare quality control working solutions with different concentrations containing about 150 ng, 60 ng, 15 ng, 1.5 ng and 0.5 ng per 1 ml. (The solution was stored at −70° C.)
The solution to be tested, the standard working solution and the quality control sample solution were thawed at room temperature and mixed uniformly. 100 μl of the above solution was respectively taken, added with 20 μl of the internal standard and 500 μl of methanol, and vortexed for 3 minutes to mix uniformly, and then centrifuged for 30 minutes at 2143 rcf. 450 μl of supernatant was taken, and then centrifuged for 10 minutes in a 96-well plate at 2143 rcf. It was obtained by taking 300 μl of supernatant.
Liquid phase conditions: A SHARC 1, 3 μm, 2.1*50 mm or chromatograph column with equivalent performance was used; methanol solution containing low content of ammonium acetate was used; mobile phase B was acetonitrile; the gradient elution was performed according to the following table; column temperature: 20° C.; injection volume: 5 μl.
Mass spectrometric conditions: electrospray ion source with negative ion scanning mode; spray potential: −4500 V; ion source temperature: 500° C.; collision energy (CE): −22 eV; declustering potential (DP): −55V; entrance potential (EP): −10V; collision chamber exit potential (CXP): −16V; dwell time: 100 ms; high purity nitrogen was used for all gases; AST-2660 ions pairs: m/z 147.0→m/z 62.9; the internal standard AST-2660-D8 ion pairs: m/z 155.0→m/z 62.9.
The AST-2660 standard working solution, blank sample, zero concentration sample, solution to be tested and quality control working solution with different concentrations after extraction were respectively taken and injected into LC-MS/MS for detection.
Calculation results: the relationship function y=f (x) of the ratio of the peak area of AST-2660 to that of the internal standard was obtained from AST-2660 standard working solutions with different concentrations. The ratio of the peak area of AST-2660 to that of the internal standard was determined from the solution to be tested after extraction, and substituted into the relationship function y=f (x) to calculate the concentration of the metabolite II in the solution to be tested.

[1] = QC1 nominal 1.50 ng/ml, 4 hours
[2] = QC1 nominal 1.50 ng/ml, 24 hours
[3] = QC4 nominal 150 ng/ml, 24 hours

O=P([O-])(N1CC1)N1CC1.[Na+] [AST-2660]
RE (accuracy), range over three concentration levels (human urine at room temperature for 4 hours, 1.5, 150 and 1500 ng/ml): RE: −8.5% to 4.5%
RE (%) vs nominal (DilQC (10-fold dilution) nominal 1500 ng/ml, 0 hour): −5.7%
RE (%) vs nominal (DilQC (10-fold dilution) nominal 1500 ng/ml, 4 hours): −5.7%
RE (%) vs nominal (DilQC (10-fold dilution) nominal 1500 ng/ml, 24 hours): −13.2%
AST-2660 concentration, Mean value (QC1 nominal 1.50 ng/ml, 0 hour): 1.37 ng/mL
AST-2660 concentration, single replicates (QC1 nominal 1.50 ng/ml, 0 hour): 1.44 ng/mL
RE (%) vs nominal (QC1 nominal 1.50 ng/ml, 0 hour): −8.5%
AST-2660 concentration, Mean value [1]: 1.45 ng/mL
AST-2660 concentration, single replicates [1]: 1.51 ng/mL
RE (%) vs nominal [1]: −3.7%
AST-2660 concentration, Mean value [2]: 1.90 ng/mL
AST-2660 concentration, single replicates [2]: 2.07 ng/mL
RE (%) vs nominal [2]: 26.7%
AST-2660 concentration, single replicates (QC4 nominal 150 ng/ml, 0 hour): 141 ng/mL and 144 ng/mL and 142 ng/mL and 146 ng/mL
RE (%) vs nominal (QC4 nominal 150 ng/ml, 0 hour): −4.5%
AST-2660 concentration, single replicates (QC4 nominal 150 ng/ml, 4 hours): 156 ng/mL and 154 ng/mL and 159 ng/mL
RE (%) vs nominal (QC4 nominal 150 ng/ml, 4 hours): 4.5%
AST-2660 concentration, single replicates [3]: 149 ng/ml (2×) and 154 ng/ml
RE (%) vs nominal [3]: 0.8%
stability (in words) (untreated human urine samples, 24 hours at room temperature): stable
